According to PubChem BioAssay (NCI):
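All cell lines were grown in 96-well plates and treated with compound for 48 hours. At the TGI there is no net growth.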

Assays:
Assay in all cases: NCI anticancer screen, dose series, 48 h
MDA-MB-435 = tested on: MDA-MB-435
UO-31 renal = tested on: UO-31 renal
MCF7 breast = tested on: MCF7 breast
LOX IMVI melanoma = tested on: LOX IMVI melanoma
OVCAR-5 ovarian = tested on: OVCAR-5 ovarian
SNB-19 CNS = tested on: SNB-19 CNS
DU-145 prostate = tested on: DU-145 prostate
TK-10 renal = tested on: TK-10 renal
SK-OV-3 ovarian = tested on: SK-OV-3 ovarian
SNB-75 CNS = tested on: SNB-75 CNS
ACHN renal = tested on: ACHN renal
786-0 renal = tested on: 786-0 renal
CAKI-1 renal = tested on: CAKI-1 renal
U251 CNS = tested on: U251 CNS
PC-3 prostate = tested on: PC-3 prostate
UACC-62 melanoma = tested on: UACC-62 melanoma
MDA-MB-231 breast = tested on: MDA-MB-231 breast
BT-549 breast = tested on: BT-549 breast
NCI/ADR-RES ovarian = tested on: NCI/ADR-RES ovarian
SN12C renal = tested on: SN12C renal
M14 melanoma = tested on: M14 melanoma
EKVX NSCLC = tested on: EKVX NSCLC
OVCAR-8 ovarian = tested on: OVCAR-8 ovarian
SR leukemia = tested on: SR leukemia
SF-295 CNS = tested on: SF-295 CNS
NCI-H23 lung = tested on: NCI-H23 lung
NCI-H460 lung = tested on: NCI-H460 lung
HCT-116 colon = tested on: HCT-116 colon
CCRF-CEM leukemia = tested on: CCRF-CEM leukemia
HCC-2998 colon = tested on: HCC-2998 colon
HCT-15 colon = tested on: HCT-15 colon
KM12 colon = tested on: KM12 colon
K-562 leukemia = tested on: K-562 leukemia
NCI-H226 lung = tested on: NCI-H226 lung
RPMI-8226 leukemia = tested on: RPMI-8226 leukemia
UACC-257 melanoma = tested on: UACC-257 melanoma
IGROV1 ovarian = tested on: IGROV1 ovarian
SK-MEL-5 melanoma = tested on: SK-MEL-5 melanoma
MOLT-4 leukemia = tested on: MOLT-4 leukemia
SF-268 CNS = tested on: SF-268 CNS
MALME-3M melanoma = tested on: MALME-3M melanoma
HS 578T breast = tested on: HS 578T breast
HOP-92 NSCLC = tested on: HOP-92 NSCLC
MDA-N = tested on: MDA-N
A549 NSCLC = tested on: A549 NSCLC
T-47D breast = tested on: T-47D breast
A498 renal = tested on: A498 renal
HT29 colon = tested on: HT29 colon
COLO 205 colon = tested on: COLO 205 colon
HL-60(TB) leukemia = tested on: HL-60(TB) leukemia
OVCAR-3 ovarian = tested on: OVCAR-3 ovarian
RXF 393 renal = tested on: RXF 393 renal
SF-539 CNS = tested on: SF-539 CNS
SW-620 colon = tested on: SW-620 colon
OVCAR-4 ovarian = tested on: OVCAR-4 ovarian
HOP-62 NSCLC = tested on: HOP-62 NSCLC
NCI-H522 lung = tested on: NCI-H522 lung
SK-MEL-2 melanoma = tested on: SK-MEL-2 melanoma

**Q.** `CC(=O)OC(OC(C)=O)c1ccc2ccc3cccc4ccc1c2c34` was tested. Which TGI (MDA-MB-435) did it give?
**A.** 37.9 µM

**Q.** And the TGI (UO-31 renal)?
**A.** 44.6 µM

**Q.** What about the TGI (MCF7 breast) of the same molecule?
**A.** 79.1 µM

**Q.** What about the TGI (LOX IMVI melanoma) of the same molecule?
**A.** 36 µM

**Q.** What about the TGI (OVCAR-5 ovarian) of the same molecule?
**A.** 41.8 µM

**Q.** What about the TGI (SNB-19 CNS) of the same molecule?
**A.** 98.7 µM

**Q.** And the TGI (DU-145 prostate)?
**A.** 45.8 µM

**Q.** And the TGI (TK-10 renal)?
**A.** 21.4 µM

**Q.** And the TGI (SK-OV-3 ovarian)?
**A.** 53.4 µM

**Q.** And the TGI (SNB-75 CNS)?
**A.** 41.6 µM

**Q.** And the TGI (ACHN renal)?
**A.** 65.8 µM

**Q.** And the TGI (786-0 renal)?
**A.** > 100 µM

**Q.** What about the TGI (CAKI-1 renal) of the same molecule?
**A.** 32.5 µM

**Q.** And the TGI (U251 CNS)?
**A.** 41.8 µM

**Q.** And the TGI (PC-3 prostate)?
**A.** 65.6 µM

**Q.** And the TGI (UACC-62 melanoma)?
**A.** 27.3 µM

**Q.** And the TGI (MDA-MB-231 breast)?
**A.** 84.1 µM

**Q.** And the TGI (BT-549 breast)?
**A.** 53.6 µM

**Q.** What about the TGI (NCI/ADR-RES ovarian) of the same molecule?
**A.** > 100 µM

**Q.** And the TGI (SN12C renal)?
**A.** > 100 µM

**Q.** What about the TGI (M14 melanoma) of the same molecule?
**A.** 61 µM

**Q.** And the TGI (EKVX NSCLC)?
**A.** 80.6 µM

**Q.** And the TGI (OVCAR-8 ovarian)?
**A.** > 100 µM

**Q.** What about the TGI (SR leukemia) of the same molecule?
**A.** > 100 µM

**Q.** And the TGI (SF-295 CNS)?
**A.** 37.5 µM

**Q.** And the TGI (NCI-H23 lung)?
**A.** 45.1 µM

**Q.** And the TGI (NCI-H460 lung)?
**A.** 39.6 µM

**Q.** And the TGI (HCT-116 colon)?
**A.** 52.4 µM

**Q.** What about the TGI (CCRF-CEM leukemia) of the same molecule?
**A.** > 100 µM

**Q.** What about the TGI (HCC-2998 colon) of the same molecule?
**A.** 24.5 µM

**Q.** What about the TGI (HCT-15 colon) of the same molecule?
**A.** > 100 µM

**Q.** What about the TGI (KM12 colon) of the same molecule?
**A.** > 100 µM

**Q.** And the TGI (K-562 leukemia)?
**A.** 96.2 µM

**Q.** What about the TGI (NCI-H226 lung) of the same molecule?
**A.** 8.43 µM

**Q.** And the TGI (RPMI-8226 leukemia)?
**A.** > 100 µM

**Q.** And the TGI (UACC-257 melanoma)?
**A.** 34.5 µM

**Q.** What about the TGI (IGROV1 ovarian) of the same molecule?
**A.** 54.1 µM

**Q.** And the TGI (SK-MEL-5 melanoma)?
**A.** 32.8 µM

**Q.** And the TGI (MOLT-4 leukemia)?
**A.** > 100 µM

**Q.** What about the TGI (SF-268 CNS) of the same molecule?
**A.** 91.7 µM

**Q.** What about the TGI (MALME-3M melanoma) of the same molecule?
**A.** 54.7 µM

**Q.** And the TGI (HS 578T breast)?
**A.** 36.8 µM

**Q.** What about the TGI (HOP-92 NSCLC) of the same molecule?
**A.** 42.3 µM

**Q.** What about the TGI (MDA-N) of the same molecule?
**A.** 36.9 µM

**Q.** What about the TGI (A549 NSCLC) of the same molecule?
**A.** > 100 µM

**Q.** What about the TGI (T-47D breast) of the same molecule?
**A.** 68 µM

**Q.** What about the TGI (A498 renal) of the same molecule?
**A.** 3.74 µM

**Q.** And the TGI (HT29 colon)?
**A.** 38.3 µM

**Q.** What about the TGI (COLO 205 colon) of the same molecule?
**A.** 58.4 µM

**Q.** What about the TGI (HL-60(TB) leukemia) of the same molecule?
**A.** > 100 µM

**Q.** And the TGI (OVCAR-3 ovarian)?
**A.** > 100 µM

**Q.** What about the TGI (RXF 393 renal) of the same molecule?
**A.** 25.3 µM

**Q.** And the TGI (SF-539 CNS)?
**A.** > 100 µM

**Q.** How did the TGI (SW-620 colon) turn out when `C=CCn1c(N)c(C#N)c(C#N)c1-c1ccccc1` was run?
**A.** > 100 µM

**Q.** And the TGI (MDA-MB-435)?
**A.** > 100 µM

**Q.** And the TGI (UO-31 renal)?
**A.** > 100 µM

**Q.** And the TGI (MCF7 breast)?
**A.** > 100 µM

**Q.** What about the TGI (LOX IMVI melanoma) of the same molecule?
**A.** > 100 µM

**Q.** And the TGI (OVCAR-5 ovarian)?
**A.** > 100 µM

**Q.** And the TGI (SNB-19 CNS)?
**A.** > 100 µM

**Q.** And the TGI (DU-145 prostate)?
**A.** > 100 µM

**Q.** And the TGI (OVCAR-4 ovarian)?
**A.** > 100 µM

**Q.** What about the TGI (TK-10 renal) of the same molecule?
**A.** > 100 µM

**Q.** And the TGI (SK-OV-3 ovarian)?
**A.** > 100 µM

**Q.** And the TGI (SNB-75 CNS)?
**A.** > 100 µM

**Q.** And the TGI (ACHN renal)?
**A.** > 100 µM

**Q.** What about the TGI (786-0 renal) of the same molecule?
**A.** > 100 µM

**Q.** And the TGI (CAKI-1 renal)?
**A.** > 100 µM

**Q.** And the TGI (U251 CNS)?
**A.** > 100 µM

**Q.** And the TGI (PC-3 prostate)?
**A.** > 100 µM

**Q.** What about the TGI (UACC-62 melanoma) of the same molecule?
**A.** > 100 µM

**Q.** And the TGI (MDA-MB-231 breast)?
**A.** > 100 µM

**Q.** And the TGI (BT-549 breast)?
**A.** > 100 µM

**Q.** What about the TGI (NCI/ADR-RES ovarian) of the same molecule?
**A.** > 100 µM

**Q.** What about the TGI (SN12C renal) of the same molecule?
**A.** > 100 µM

**Q.** And the TGI (M14 melanoma)?
**A.** > 100 µM

**Q.** What about the TGI (EKVX NSCLC) of the same molecule?
**A.** > 100 µM

**Q.** What about the TGI (OVCAR-8 ovarian) of the same molecule?
**A.** > 100 µM

**Q.** And the TGI (SR leukemia)?
**A.** > 100 µM

**Q.** What about the TGI (SF-295 CNS) of the same molecule?
**A.** > 100 µM

**Q.** And the TGI (NCI-H23 lung)?
**A.** > 100 µM

**Q.** And the TGI (CCRF-CEM leukemia)?
**A.** > 100 µM

**Q.** What about the TGI (HCC-2998 colon) of the same molecule?
**A.** > 100 µM

**Q.** And the TGI (HCT-15 colon)?
**A.** > 100 µM

**Q.** And the TGI (KM12 colon)?
**A.** > 100 µM

**Q.** What about the TGI (K-562 leukemia) of the same molecule?
**A.** > 100 µM

**Q.** What about the TGI (NCI-H226 lung) of the same molecule?
**A.** > 100 µM

**Q.** What about the TGI (RPMI-8226 leukemia) of the same molecule?
**A.** > 100 µM

**Q.** And the TGI (UACC-257 melanoma)?
**A.** > 100 µM

**Q.** What about the TGI (HOP-62 NSCLC) of the same molecule?
**A.** > 100 µM

**Q.** And the TGI (IGROV1 ovarian)?
**A.** > 100 µM

**Q.** What about the TGI (SK-MEL-5 melanoma) of the same molecule?
**A.** > 100 µM

**Q.** And the TGI (MOLT-4 leukemia)?
**A.** > 100 µM

**Q.** What about the TGI (SF-268 CNS) of the same molecule?
**A.** > 100 µM

**Q.** What about the TGI (MALME-3M melanoma) of the same molecule?
**A.** > 100 µM

**Q.** What about the TGI (NCI-H522 lung) of the same molecule?
**A.** > 100 µM

**Q.** And the TGI (HS 578T breast)?
**A.** > 100 µM

**Q.** And the TGI (HOP-92 NSCLC)?
**A.** > 100 µM

**Q.** What about the TGI (MDA-N) of the same molecule?
**A.** > 100 µM

**Q.** What about the TGI (A549 NSCLC) of the same molecule?
**A.** > 100 µM

**Q.** What about the TGI (T-47D breast) of the same molecule?
**A.** > 100 µM

**Q.** And the TGI (A498 renal)?
**A.** > 100 µM

**Q.** What about the TGI (HT29 colon) of the same molecule?
**A.** > 100 µM

**Q.** And the TGI (SK-MEL-2 melanoma)?
**A.** > 100 µM

**Q.** What about the TGI (COLO 205 colon) of the same molecule?
**A.** > 100 µM

**Q.** What about the TGI (HL-60(TB) leukemia) of the same molecule?
**A.** > 100 µM

**Q.** What about the TGI (OVCAR-3 ovarian) of the same molecule?
**A.** > 100 µM

**Q.** And the TGI (RXF 393 renal)?
**A.** > 100 µM

**Q.** What about the TGI (SF-539 CNS) of the same molecule?
**A.** > 100 µM
